In ChEMBL document CHEMBL4765323, “Design, synthesis, and biological evaluation of novel miconazole analogues containing selenium as potent antifungal agents” (Eur J Med Chem, 2020):
Converted amounts (≈) assume the structure as drawn.

Columns and labels:
[1] = test system: Candida albicans; experiment: Antifungal activity against Candida albicans CPCC400616 measured after 24 hrs by micro-broth dilution assay; format: functional
[2] = test system: Candida albicans; experiment: Antifungal activity against Candida albicans ATCC SC5314 measured after 24 hrs by micro-broth dilution assay; format: functional
[3] = test system: [Candida] zeylanoides; experiment: Antifungal activity against Candida zeylanoides CMGCC2.3739 measured after 24 hrs by micro-broth dilution assay; format: functional; settings: Dujonia zeylanoides
[4] = test system: Cryptococcus neoformans; experiment: Antifungal activity against Cryptococcus neoformans CGMCC2.3161 measured after 72 hrs by micro-broth dilution assay; format: functional
[5] = test system: Pichia kudriavzevii; experiment: Antifungal activity against Candida krusei AS 2.1045 measured after 24 hrs by micro-broth dilution assay; format: functional
[6] = test system: Nakaseomyces glabratus; experiment: Antifungal activity against clinical isolate Candida glabrata measured after 24 hrs by micro-broth dilution assay; format: functional
[7] = test system: Candida parapsilosis; experiment: Antifungal activity against Candida parapsilosis ATCC 22019 measured after 24 hrs by micro-broth dilution assay; format: functional; settings: Lodderomyces parapsilosis
[8] = test system: Aspergillus fumigatus; experiment: Antifungal activity against Aspergillus fumigatus CGMCC 3.7795 measured after 72 hrs by micro-broth dilution assay; format: functional
[9] = test system: Candida albicans; experiment: Antifungal activity against fluconazole-resistant Candida albicans CaR measured after 24 hrs by micro-broth dilution assay; format: functional
[10] = test system: Candida albicans; experiment: Antifungal activity against fluconazole-resistant Candida albicans 17 measured after 24 hrs by micro-broth dilution assay; format: functional
[11] = test system: Candida albicans; experiment: Antifungal activity against fluconazole-resistant Candida albicans 632 measured after 24 hrs by micro-broth dilution assay; format: functional
[12] = test system: Candida albicans; experiment: Antifungal activity against Candida albicans 901 measured after 24 hrs by micro-broth dilution assay; format: functional
[13] = test system: Candida albicans; experiment: Antifungal activity against fluconazole-resistant Candida albicans strain 904 measured after 24 hrs by micro-broth dilution assay; format: functional
[14] = test system: Candida albicans; experiment: Fungicidal activity against Candida albicans CPCC400616 measured after 48 hrs; format: functional
[15] = Ratio of MFC for fungicidal activity against Candida albicans CPCC400616 to MIC for Antifungal activity against Candida albicans CPCC400616; format: functional; settings: time 24 hrs
[16] = Ratio of hemolysis activity in rabbit RBC to MIC for Candida albicans; format: toxicity; settings: rabbit red blood cells (RBC)

Fc1cccc(C[Se]C(Cn2ccnc2)c2ccc(F)cc2F)c1 (stereo not given)
MIC [1]: 0.03 µg/mL (≈ 0.0759 µM)
MIC [2]: 0.03 µg/mL (≈ 0.0759 µM)
MIC [3]: 1 µg/mL (≈ 2.53 µM)
MIC [4]: 0.5 µg/mL (≈ 1.26 µM)
MIC [5]: 0.13 µg/mL (≈ 0.329 µM)
MIC [6]: 0.5 µg/mL (≈ 1.26 µM)
MIC [7]: 0.25 µg/mL (≈ 0.632 µM)
MIC [8]: 2 µg/mL (≈ 5.06 µM)
MIC [9]: 4 µg/mL (≈ 10.1 µM)
MIC [10]: 0.06 µg/mL (≈ 0.152 µM)
MIC [11]: 8 µg/mL (≈ 20.2 µM)
MIC [12]: 8 µg/mL (≈ 20.2 µM)
MIC [13]: 1 µg/mL (≈ 2.53 µM)
MIC [14]: > 128 µg/mL

Fc1ccc(C(Cn2ccnc2)[Se]Cc2ccccc2Br)c(F)c1 (stereo not given)
MIC [1]: 0.02 µg/mL (≈ 0.0438 µM)
MIC [2]: 0.01 µg/mL (≈ 0.0219 µM)
MIC [3]: 0.25 µg/mL (≈ 0.548 µM)
MIC [4]: 0.25 µg/mL (≈ 0.548 µM)
MIC [5]: 0.06 µg/mL (≈ 0.132 µM)
MIC [6]: 1 µg/mL (≈ 2.19 µM)
MIC [7]: 0.02 µg/mL (≈ 0.0438 µM)
MIC [8]: 1 µg/mL (≈ 2.19 µM)
MIC [9]: 0.13 µg/mL (≈ 0.285 µM)
MIC [10]: 0.06 µg/mL (≈ 0.132 µM)
MIC [11]: 0.25 µg/mL (≈ 0.548 µM)
MIC [12]: 0.25 µg/mL (≈ 0.548 µM)
MIC [13]: 0.06 µg/mL (≈ 0.132 µM)
MIC [14]: 0.125 µg/mL (≈ 0.274 µM)
MFC/MIC ratio [15]: 8
selectivity ratio [16]: 512

Clc1ccc(C(Cn2ccnc2)[Se]Cc2ccccc2Br)c(Cl)c1 (stereo not given)
MIC [1]: 0.02 µg/mL (≈ 0.0409 µM)
MIC [2]: 0.01 µg/mL (≈ 0.0204 µM)
MIC [3]: 0.25 µg/mL (≈ 0.511 µM)
MIC [4]: 0.5 µg/mL (≈ 1.02 µM)
MIC [5]: 0.25 µg/mL (≈ 0.511 µM)
MIC [6]: 0.5 µg/mL (≈ 1.02 µM)
MIC [7]: 0.03 µg/mL (≈ 0.0613 µM)
MIC [8]: 1 µg/mL (≈ 2.04 µM)
MIC [9]: 0.5 µg/mL (≈ 1.02 µM)
MIC [10]: 0.5 µg/mL (≈ 1.02 µM)
MIC [11]: 1 µg/mL (≈ 2.04 µM)
MIC [12]: 1 µg/mL (≈ 2.04 µM)
MIC [13]: 0.25 µg/mL (≈ 0.511 µM)
MIC [14]: 0.25 µg/mL (≈ 0.511 µM)
MFC/MIC ratio [15]: 16
